This note sets out measurements from ChEMBL document CHEMBL1201862, “PubChem BioAssay data set” (2004).

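Method: 48-hour compound exposure of cells in 96-well plates, five concentrations, linear interpolation of endpoints. Here, GI50 denotes the concentration required for 50% inhibition of growth.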 Calls of active or inactive are those of the source. No stated cut-off is given here; in the data, active = GI50 up to about 1.1 µM and inactive = higher.

Test systems include Malme-3M; HT-29; SF-268; SNB-75; OVCAR-4; UACC-257; OVCAR-3; HL-60; DU-145; UO-31; 786-0; SK-OV-3; OVCAR-8; NCI-H460; SK-MEL-5; A498; M14; PC-3; MDA-MB-435; MDA-MB-231.
What all share (assay): growth of human tumour cells (NCI), 48 h

For `C=C(CN(C)C)C(=O)c1ccccc1C`, the GI50 in the assay with Malme-3M is 17.9 µM (inactive); with HT-29, > 100 µM (inactive); in the assay on SF-268, 77.1 µM (inactive); in the assay with SNB-75 it was > 71.6 µM (inactive); in the assay on OVCAR-4 it was > 57.9 µM (inactive); in the assay on UACC-257, > 55.7 µM (inactive). The GI50 is 33.1 µM (inactive) in the assay with OVCAR-3; 5.52 µM (inactive) with HL-60; > 100 µM (inactive) in the assay with DU-145; 37.4 µM (inactive) with UO-31; 16.9 µM (inactive) with 786-0; > 100 µM (inactive) with SK-OV-3. The GI50 is > 100 µM (inactive) with OVCAR-8; > 100 µM (inactive) with NCI-H460; > 86.5 µM (inactive) in the assay on SK-MEL-5; > 100 µM (inactive) in the assay on A498; 18.1 µM (inactive) in the assay with M14.

`COc1cc(C2SCC(=O)N2NC(=O)c2ccc(NC(C)=O)cc2OC)ccc1O` (centres undefined): the GI50 with Malme-3M is > 100 µM (inactive); with HT-29, > 100 µM (inactive); in the assay with SF-268, 23.7 µM (inactive); in the assay with SNB-75, 23.7 µM (inactive); in the assay with OVCAR-4, > 100 µM (inactive); in the assay on OVCAR-3 it was > 100 µM (inactive). Also, the GI50 in the assay with HL-60 is 54.2 µM (inactive); with DU-145 it was 21 µM (inactive); in the assay with UO-31, > 100 µM (inactive); in the assay on 786-0, 31.3 µM (inactive); in the assay on PC-3 it was 37.4 µM (inactive); with SK-OV-3, 6.27 µM (inactive). In addition, the GI50 with OVCAR-8 was 25.2 µM (inactive); with MDA-MB-435, > 100 µM (inactive); in the assay on A498 it was 7.59 µM (inactive); in the assay with M14, > 100 µM (inactive).

Turning to `CC(C)c1ccc(O)c(Cc2cc(C(C)C)cc(Cc3cc(C(C)C)ccc3O)c2O)c1`, the GI50 was 1.5 µM (inactive) with Malme-3M; 2.25 µM (inactive) with HT-29; 1.82 µM (inactive) in the assay on SF-268; 2.16 µM (inactive) in the assay on SNB-75; 1.39 µM (inactive) in the assay with OVCAR-4; 1.71 µM (inactive) with UACC-257. The GI50 in the assay on OVCAR-3 was 1.65 µM (inactive); in the assay on HL-60, 2 µM (inactive); with UO-31, 1.68 µM (inactive); with 786-0, 1.7 µM (inactive); in the assay on SK-OV-3 it was 1.68 µM (inactive); in the assay on OVCAR-8, 2.09 µM (inactive). Also, the GI50 in the assay on NCI-H460 is 1.83 µM (inactive); in the assay with SK-MEL-5, 1.62 µM (inactive); in the assay on A498, 1.46 µM (inactive); in the assay with M14, 1.66 µM (inactive).

`O=C(N/C=C1\C(=O)Oc2ccccc2C1=O)Nc1ccccc1`: the GI50 is 17 µM (inactive) in the assay with Malme-3M; > 100 µM (inactive) in the assay with HT-29; 31.8 µM (inactive) in the assay on SF-268; 12.8 µM (inactive) with SNB-75; > 100 µM (inactive) with OVCAR-4; 91.2 µM (inactive) with UACC-257. Besides, the GI50 is 75 µM (inactive) in the assay with OVCAR-3; > 100 µM (inactive) in the assay with HL-60; 28.3 µM (inactive) in the assay with UO-31; 43.3 µM (inactive) in the assay on 786-0; 31.6 µM (inactive) with SK-OV-3; 44.1 µM (inactive) in the assay with OVCAR-8. For the same molecule, the GI50 in the assay with NCI-H460 is 63.8 µM (inactive); with SK-MEL-5 it was 25.8 µM (inactive); with A498 it was 35.3 µM (inactive); in the assay on M14 it was 52.8 µM (inactive).

As to `CCN(CC)c1ccc(/N=N/c2ccc(-c3nc4ccc[n+](C)c4o3)cc2)cc1`, the GI50 in the assay on Malme-3M was 2.31 µM (inactive); in the assay on HT-29, 11.3 µM (inactive); in the assay with SF-268, 12.6 µM (inactive); with SNB-75, 11.6 µM (inactive); in the assay with OVCAR-4 it was 12 µM (inactive); with UACC-257, 7.01 µM (inactive). In addition, the GI50 in the assay with OVCAR-3 is 10 µM (inactive); in the assay with HL-60, 2.06 µM (inactive); in the assay on UO-31, 12.7 µM (inactive); with 786-0, 11.4 µM (inactive); with SK-OV-3, 19.5 µM (inactive); with OVCAR-8, 5.11 µM (inactive). In addition, the GI50 in the assay with NCI-H460 is 12.6 µM (inactive); in the assay with SK-MEL-5, 2.97 µM (inactive); with A498, 15.7 µM (inactive); in the assay with M14 it was 12.1 µM (inactive).

Turning to `CC1(C(=O)Nc2ccc3cc4ccccc4cc3c2)CC2(C)CC(C)(C1)C(O)NC2=O` (centres undefined), the GI50 in the assay on Malme-3M was 57.3 µM (inactive); in the assay on HT-29 it was 92.5 µM (inactive); with SF-268 it was > 100 µM (inactive); with SNB-75, > 100 µM (inactive); in the assay on OVCAR-4, > 100 µM (inactive); in the assay with UACC-257 it was > 100 µM (inactive). The GI50 in the assay on OVCAR-3 was 70 µM (inactive); in the assay on HL-60 it was 20.9 µM (inactive); in the assay on UO-31, > 100 µM (inactive); in the assay with 786-0 it was > 100 µM (inactive); in the assay on SK-OV-3, > 100 µM (inactive); with OVCAR-8, > 100 µM (inactive). For the same molecule, the GI50 in the assay with NCI-H460 is 56 µM (inactive); in the assay with SK-MEL-5 it was > 100 µM (inactive); with A498 it was > 100 µM (inactive); with M14 it was > 100 µM (inactive).

For `COc1ccccc1CNC1=Nc2ccncc2S(=O)(=O)N1c1ccccc1`, the GI50 is 37.7 µM (inactive) in the assay on Malme-3M; > 100 µM (inactive) in the assay with HT-29; > 100 µM (inactive) with OVCAR-4; 82.8 µM (inactive) with UACC-257; > 100 µM (inactive) in the assay on OVCAR-3; 41.1 µM (inactive) in the assay with HL-60. Also, the GI50 in the assay on DU-145 is 97.5 µM (inactive); in the assay on UO-31 it was > 100 µM (inactive); in the assay with 786-0, > 100 µM (inactive); in the assay with PC-3, 31 µM (inactive); in the assay on SK-OV-3, > 100 µM (inactive); in the assay with OVCAR-8 it was 84.7 µM (inactive). In addition, the GI50 in the assay with MDA-MB-435 was > 100 µM (inactive); with NCI-H460, 60.4 µM (inactive); in the assay on SK-MEL-5, 34 µM (inactive); in the assay on A498, 45.8 µM (inactive); in the assay on M14, > 100 µM (inactive).

On to `COC(=O)c1ccccc1N(C(=O)c1ccccc1)c1ccccc1C`, for which the GI50 in the assay on Malme-3M is 36.3 µM (inactive); in the assay on HT-29 it was 39.4 µM (inactive); in the assay on SF-268, > 100 µM (inactive); with SNB-75, > 100 µM (inactive); in the assay with OVCAR-4 it was 44.2 µM (inactive); in the assay with UACC-257 it was 39.2 µM (inactive). Besides, the GI50 in the assay on OVCAR-3 is 34.6 µM (inactive); in the assay with HL-60, 19.5 µM (inactive); with UO-31 it was 24.8 µM (inactive); in the assay with 786-0, 50 µM (inactive); with SK-OV-3, 24.3 µM (inactive); with OVCAR-8, 37.5 µM (inactive). Also, the GI50 with NCI-H460 was 29.8 µM (inactive); in the assay with SK-MEL-5, 30.8 µM (inactive); with A498 it was 27.5 µM (inactive); in the assay on M14, 24 µM (inactive).

On to `O=[N+]([O-])c1ccc(Cl)c(C2CC(c3cccc4ccccc34)=Nc3ccccc3S2)c1` (centres undefined), for which the GI50 in the assay on Malme-3M is > 54.8 µM (inactive); with HT-29 it was 17.3 µM (inactive); with SF-268 it was 18.7 µM (inactive); in the assay on SNB-75, 0.195 µM (active); with OVCAR-4, 20.1 µM (inactive); with UACC-257 it was 31.6 µM (inactive). Also, the GI50 in the assay on OVCAR-3 is 16.3 µM (inactive); in the assay on HL-60, 5.21 µM (inactive); with UO-31, 18.4 µM (inactive); with 786-0 it was 12.4 µM (inactive); in the assay with SK-OV-3, > 84.7 µM (inactive); with OVCAR-8, 12.9 µM (inactive). In addition, the GI50 with NCI-H460 is 26.5 µM (inactive); in the assay with SK-MEL-5 it was 16.7 µM (inactive); in the assay on A498 it was > 45.2 µM (inactive); with M14, 20.6 µM (inactive).

Take `CCOC(=O)Nc1ccc(S(=O)(=O)OC)cc1.CCOC(=O)Nc1ccc(S(=O)(=O)OC)cc1.NNC(=O)c1ccncc1`: the GI50 is > 50 µM (inactive) with Malme-3M; 44.7 µM (inactive) in the assay on HT-29; > 50 µM (inactive) with SF-268; > 50 µM (inactive) in the assay on SNB-75; > 50 µM (inactive) in the assay with OVCAR-4; > 50 µM (inactive) with UACC-257. Moreover, the GI50 with OVCAR-3, in the assay with HL-60, with UO-31, in the assay with 786-0, in the assay on SK-OV-3 and with OVCAR-8 was > 50 µM (inactive) throughout. Moreover, the GI50 with NCI-H460, with SK-MEL-5, in the assay with A498 and in the assay with M14 was > 50 µM (inactive) in each case.

As to `Cn1ncc2c(Cl)ncnc21`, the GI50 with HT-29, in the assay with SF-268, with SNB-75, with OVCAR-4, in the assay with UACC-257 and in the assay on OVCAR-3 was > 100 µM (inactive) throughout. Moreover, the GI50 in the assay on HL-60, in the assay on DU-145, in the assay with UO-31, with 786-0, in the assay with PC-3 and in the assay on SK-OV-3 was > 100 µM (inactive) throughout. The GI50 in the assay on OVCAR-8, in the assay with MDA-MB-435, in the assay on NCI-H460, with SK-MEL-5, in the assay on A498 and in the assay on M14 was > 100 µM (inactive) each time.

On to `O=C1N[C@H]2[C@H](O)[C@H](O)[C@@H](O)[C@H](O)[C@@H]2c2cc3c(c(O)c21)OCO3` [PANCRATISTATIN], for which the GI50 is 0.0352 µM (active) with Malme-3M; 0.0344 µM (active) in the assay on MDA-MB-231; 0.0439 µM (active) in the assay with HT-29; 0.0391 µM (active) with SF-268; 0.0301 µM (active) in the assay on SNB-75; 0.0307 µM (active) in the assay with OVCAR-4. For the same molecule, the GI50 in the assay on UACC-257 was 0.0429 µM (active); in the assay on OVCAR-3, 0.0376 µM (active); in the assay on HL-60 it was 0.0364 µM (active); in the assay with DU-145 it was 0.0306 µM (active); with UO-31, 0.0875 µM (active); in the assay on 786-0, 1.58 µM (inactive). Besides, the GI50 in the assay on SK-OV-3 is 0.0483 µM (active); in the assay on OVCAR-8 it was 0.0336 µM (active); with MDA-MB-435, 0.0372 µM (active); in the assay on NCI-H460, 0.0457 µM (active); with SK-MEL-5, 0.0272 µM (active); with A498, 0.0583 µM (active). The GI50 with M14 is 0.262 µM (active).
